From patent US20230277553A1, “THERAPEUTIC COMPOSITION OF CURE-PRO COMPOUNDS FOR TARGETED DEGRADATION OF BET DOMAIN PROTEINS, AND METHODS OF MAKING AND USAGE” (CORNELL UNIVERSITY, priority 2020, published 2023)
“Also recorded” adds a separate entry of the source.

Experiments:
Format in all cases: cell-based
[1] = target: T1, BRD4 (Homo sapiens, UniProt O60885); assay: CURE-PRO-mediated BRD4 degradation with VHL ligands, Western blot, MCF7 cells; parameters: endogenous in cells; details: MCF7, 24 h, 1:1 with 8305, 100 nM-10 μM
Protocol: (§1) All cell lines were purchased from ATCC or DSMZ and grown at 37° C. with 5% CO2. Human HeLa cells were cultured in complete growth medium (Dulbecco's modified Eagle's medium (DMEM) supplemented with 10% FBS); MCF7 cells were cultured in complete growth medium (Dulbecco's modified Eagle's medium (DMEM) supplemented with 10% FBS and 0.01 mg/ml human recombinant insulin (Sigma Aldrich); Namalwa and MOLM-13 cells were cultured in complete growth medium (RPMI 1640 medium supplemented with 10% FBS); MV-4-11 were cultured in complete growth medium (Iscove's Modified Dulbecco's medium, supplemented with 10% FBS); HCT116 cells were cultured in complete growth medium (McCoy's 5a Medium supplemented with 10% FBS). For cellular degradation of BRD4 studies, cells were seeded in a 12-well plate at 70-80% confluency, allowed to attach overnight, and incubated with the indicated compounds for the indicated time. When indicated, a 15-minute pretreatment with 10 μM pomalidomide, 10 μM VHL298, 10 μM Nutlin3a, 1 μM MG-132 or 1 μM Carfilzomib was performed before the addition of CURE-PROs. For washout studies, after CURE-PRO treatment, media was aspirated and incubated with complete medium for the indicated time before lysis.
HeLa, MCF7, or HCT116 cells (2.5-3×10^6) were treated for 24 hours with the indicated compounds solubilized in DMSO. The cells were washed in ice-cold PBS and were then lysed in RIPA lysis buffer (150 mM NaCl, 5 mM EDTA, 1% NP-40, 0.5% sodium deoxycholate, 0.1% SDS, 50 mM Tris, pH 8.0.) with Roche protease inhibitor complete cocktail and phosphatase inhibitors (10 mM sodium fluoride, 10 mM sodium pyrophosphate, 1 mM sodium orthovanadate and 20 mM β-glycerophosphate). The total protein concentrations were determined by Bradford Protein Assay and 10-20 μg of protein was loaded onto 4-15% Tris-Glycine gradient gels (Biorad). After standard gel electrophoresis, the separated proteins were transferred to PVDF membrane by wet transfer. The immunoblots were then blocked for 1 hour in 5% skim milk in TBST or 5% BSA in TBST, according to manufacturer's instructions, before an overnight incubation at 4° C. with indicated antibodies and membranes. Membranes were then incubated with the appropriate horseradish peroxidase-conjugated secondary antibodies (1:5,000 dilution) for 1 h at room temperature and the bands were visualized using the Clarity Max Western ECL Substrate (Biorad) and the ChemiDoc Imaging System (Biorad). Signal was detected with ECL Western Blotting Substrate (Pierce) and X-ray film processed with a Konica SRX-101 X-ray film processor or captured by Bio-Rad's Chemidoc Imaging system.
MCF7 cells (3×10^6) were treated for 24 h with the compounds solubilized in DMSO. Compounds were added at 100 nM-10 μM. […]

[2] = test system: caspase 3/7; assay: Caspase-Glo 3/7 assay, Namalwa cells; details: 24 hours, 1:1 with 8047
Protocol: Caspase-glo® assay (Promega) was conducted following the manufacturer's recommendations. Cells were seeded at a density of 5000 cells/well in a white 96 well plates (Corning, #3917) in a total volume of 100 μl with respective monomers, combinations of BRD ligands together with E3 ligase ligands or vehicle control treatment. After a 24 h incubation, 100 μl of the […] substrate was added per well and luminescence was read on a Spectramax M5 (Molecular Devices).
Namalwa cells (5×104) were treated for 24 hours with the compounds solubilized in DMSO. FIG. 57 is a bar graph depiction of fold increase of apoptosis assessed via caspase 3/7 activity using the Caspase-glo assay (Promega) described above.
Molm-13 (FIG. 76A) or Namalwa (FIG. 76B) cells (5×10^4) were treated for 24 hours with the compounds solubilized in DMSO in white 96 well plates (10 nM-10 μM solubilized in DMSO). FIG. 76 is a bar graph depiction of fold increase of apoptosis assessed via caspase 3/7 activity using the Caspase-glo assay (Promega) described above.

[3] = target: T1, BRD4; assay: CURE-PRO-mediated BRD4 degradation, Western blot, HeLa cells; parameters: endogenous in cells; host or cells: HeLa; details: 24 h
Outline: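 HeLa cells treated 24 h with compounds in DMSO (1-10 μM, 10 μM or 100 μM each; paired monomers combined 1:1), optional 15-min pretreatment with pomalidomide, VHL298, Nutlin3a (10 μM) or MG-132/carfilzomib (1 μM). RIPA lysates, 10-20 μg protein immunoblotted for BRD4 with β-actin, ECL detection.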

[4] = target: T1, BRD4; assay: CURE-PRO-mediated BRD4 degradation, WES (ProteinSimple), HeLa cells; parameters: endogenous in cells; host or cells: HeLa
Protocol: as §1
Anti-BRD4 (13440, 1:1,000 dilution for Western Blot and 1:25 dilution for ProteinSimple); Anti-BRD2 (5848 1:1,000 dilution for Western Blot and 1:25 dilution for ProteinSimple); β-Actin (3700, 1:2,000 dilution for Western Blot), β-Actin (4970, 1:50 dilution for ProteinSimple) anti-mouse IgG-HRP, and anti-rabbit IgG-HRP antibodies were purchased Cell Signaling Technology. Anti-GAPDH (600-401-A33, 1:100 dilution for ProteinSimple) was purchased from Rockland Immunochemicals, Inc. Anti-BRD3 (sc-81202, 1:200 dilution for Western Blot) was purchased from Santa Cruz Biotechnology.
WES Simple analysis was performed on WES system (ProteinSimple-Biotechne) according to the manufacturer's instructions. Total protein concentrations of cell lysates were determined by the Pierce BCA kit (Thermo Fisher). 3 μL of 0.3 μg/μL of the protein lysate was loaded onto a 12- to 230-kDa WES assay plate (ProteinSimple) where 300 nL sample was withdrawn through a capillary, subjected to electrophoretic separation of proteins by size, and followed by the simultaneous, HRP-based detection of proteins using the Anti-Rabbit Detection Module (Proteinsimple: #DM-001). The electropherograms were checked then the automatic peak detection was manually corrected if it was required.
HeLa cells (2.5×10^6) were treated for 4-24 hours with the compounds solubilized in DMSO. After 4 hours, indicated points were washed and cells were left in full growth media. Compounds were added at 10 μM each. […]

[5] = target: T1, BRD4; assay: Summary of BRD4 degradation by CURE-PRO pairs, estimated from Western Blot or WES (Proteinsimple); parameters: endogenous in cells; details: Table 1, CRBN ligand
Text: A black check mark indicates efficacy of 30% to 70% or higher protein degradation.

## COc1ccc2c(c1)C(c1ccc(Cl)cc1)=N[C@@H](CC(=O)NCc1ccc(B(O)O)cc1)c1nnc(C)n1-2 [BRD-E9, (4-((2-((4S)-6-(4-chlorophenyl)-8-methoxy-1-methyl-4H-benzo[f][1,2,4]triazolo[4,3-a][1,4]diazepin-4-yl)acetamido)methyl)phenyl)boronic acid]
[1]
  BRD4 degradation, with VHL ligand 8305 (Western blot): there is degradation of BRD4

## CCNC(=O)C[C@@H]1N=C(c2ccc(Sc3cccc(B(O)O)c3)cc2)c2cc(OC)ccc2-n2c(C)nnc21 [BRD-E52, (3-((4-((4S)-4-(2-(ethylamino)-2-oxoethyl)-8-methoxy-1-methyl-4H-benzo[f][1,2,4]triazolo[4,3-a][1,4]diazepin-6-yl)phenyl)thio)phenyl)boronic acid]
[2]
  Caspase 3/7 activation, co-dosed with CRBN ligand 8047: demonstrates activation of caspase 3/7; also recorded: marked caspase activation
[3]; 10 μM
  BRD4 degradation, BRD ligand with pomalidomide (no 8047): failed to induce BRD4 degradation
[3]; 1:1 with 8047, 10 μM each, Western blot
  BRD4 degradation, co-treatment with CRBN ligand 8047: causes degradation of BRD4
[4]; 10 μM each, 4-24 h with washout after 4 h, or 100 nM-10 μM
  BRD4 degradation, co-dosing with CRBN ligand 8047 (WES): marked BRD4 degradation after 4h with sustained degradation for up to 8h after drugs are washed out
[4]; 24 h, tested 100 nM-10 μM each
  Concentration from which BRD4 protein expression decreases, with 8047 (WES): ≥ 300 nM
[5]; second drawing (8047)
  Degradation of BRD4 in combination with CRBN ligand [drawing 371]: ✓ (A black check mark indicates efficacy of 30% to 70% or higher protein degradation)
[5]; third drawing (8066)
  Degradation of BRD4 in combination with CRBN ligand [drawing 372]: ✓ (A black check mark indicates efficacy of 30% to 70% or higher protein degradation)

## CCNC(=O)C[C@@H]1N=C(c2ccc(Sc3ccccc3)cc2)c2cc(OC)ccc2-n2c(C)nnc21 [BRD-E52C, N-ethyl-2-((4S)-8-methoxy-1-methyl-6-(4-(phenylthio)phenyl)-4H-benzo[f][1,2,4]triazolo[4,3-a][1,4]diazepin-4-yl)acetamide]
[4]; 24 h, tested 100 nM-10 μM each
  Concentration at which BRD4 degradation is induced, with 8047 (WES): > 10 µM
